Assay results published in ChEMBL document CHEMBL5143695, “Benzobis(imidazole) derivatives as STAT3 signal inhibitors with antitumor activity” (Bioorg Med Chem, 2022).

Tests used:
[1] = Inhibition of IL-6/JAK/STAT3 signalling pathway in HEK-blue IL-6 cells incubated for 16 hrs by SEAP reporter gene based QUANTI- blue assay; assay type: cell-based; conditions: Homo sapiens, HEK-Blue IL-6, 16 h
[2] = Cytotoxicity against HEK-Blue IL-6 cells; assay type: toxicity, cell-based; conditions: human
ECa-109 cell line = assay: Antitumor activity against human EC109 cells assessed as reduction in cell viability incubated for 72 hrs by MTT assay; assay type: functional, cell-based; conditions: ECa-109, 72 h
HepG2 [3] = assay: Antitumor activity against human HepG2 cells assessed as reduction in cell viability incubated for 72 hrs by MTT assay; assay type: functional, cell-based; conditions: HepG2, 72 h
[4] = Toxicity in BALB/c athymic nude mouse xenografted with human HepG2 cells assessed as decrease in body weight at 60 mg/kg, po administered daily for 24 days; assay type: organism-based; conditions: in vivo, 576 h, time 24 day
HepG2 [5] = assay: Antitumor activity against human HepG2 cells xenografted in BALB/c athymic nude mouse assessed as tumor growth inhibition at 60 mg/kg, po administered daily for 24 days relative to control; assay type: functional; conditions: HepG2, 576 h, time 24 day, read-out: TGI

SMILES	IC50 [1]	IC50 [2]	IC50 (ECa-109 cell line)	IC50 (HepG2 [3])	Activity [4]	inhibition in vivo at 60 mg/kg (HepG2 [5])
CCCn1c(C2CCOCC2)nc2cc3nc(C4CCOCC4)n(CCC)c3cc21	> 10 µM	> 10 µM				
CCCn1c(C2CC2)nc2cc3nc(C4CC4)n(CCC)c3cc21	> 10 µM	> 10 µM				
CCCn1c(-c2cc(OC)c(OC)c(OC)c2)nc2cc3nc(-c4cc(OC)c(OC)c(OC)c4)n(CCC)c3cc21	> 10 µM	> 10 µM				
CCCn1c(C2CCC2)nc2cc3nc(C4CCC4)n(CCC)c3cc21	> 10 µM	> 10 µM				
CCn1c(-c2cccc(F)c2)nc2cc3nc(-c4cccc(F)c4)n(CC)c3cc21	> 10 µM	> 10 µM				
CCCn1c(C2CCOC2)nc2cc3nc(C4CCOC4)n(CCC)c3cc21 (stereo unspecified)	> 10 µM	> 10 µM				
CCCn1c(-c2cccc(C(F)(F)F)c2)nc2cc3nc(-c4cccc(C(F)(F)F)c4)n(CCC)c3cc21	1.24 µM	> 10 µM	> 20 µM	> 20 µM		
CCCn1c(-c2cccc(Br)c2)nc2cc3nc(-c4cccc(Br)c4)n(CCC)c3cc21	> 10 µM	> 10 µM				
CCCn1c(-c2ccc3cc[nH]c3c2)nc2cc3nc(-c4ccc5cc[nH]c5c4)n(CCC)c3cc21	> 10 µM	> 10 µM				
CCCn1c(-c2ccc[nH]2)nc2cc3nc(-c4ccc[nH]4)n(CCC)c3cc21	> 10 µM	> 10 µM				
C[C@H]1COC2=C1C(=O)C(=O)c1c2ccc2c1CCCC2(C)C [CRYPTOTANSHINONE]	6.61 µM	> 10 µM	5.01 µM	29.2 µM		
CCCn1c(-c2cccc(C#N)c2)nc2cc3nc(-c4cccc(C#N)c4)n(CCC)c3cc21	6.7 µM	> 10 µM				
CCCn1c(-c2cc(OC)cc(OC)c2)nc2cc3nc(-c4cc(OC)cc(OC)c4)n(CCC)c3cc21	> 10 µM	> 10 µM				
CCCn1c(-c2scc3ccccc23)nc2cc3nc(-c4scc5ccccc45)n(CCC)c3cc21	> 10 µM	> 10 µM				
CCCn1c(-c2ccc(Cl)c(C(F)(F)F)c2)nc2cc3nc(-c4ccc(Cl)c(C(F)(F)F)c4)n(CCC)c3cc21	> 10 µM	> 10 µM				
CCCn1c(-c2ccccc2)nc2cc3nc(-c4ccccc4)n(CCN(C)C)c3cc21	> 10 µM	> 10 µM				
CCCn1c(-c2cccc(OCC)c2)nc2cc3nc(-c4cccc(OCC)c4)n(CCC)c3cc21	> 10 µM	> 10 µM				
CCCn1c(-c2ccccc2)nc2cc3nc(-c4ccccc4)n(CCC)c3cc21	7.21 µM	> 10 µM	12.6 µM	13.2 µM		
CCCn1c(-c2ccc(F)c(C(F)(F)F)c2)nc2cc3nc(-c4ccc(F)c(C(F)(F)F)c4)n(CCC)c3cc21	> 10 µM	> 10 µM				
CCCn1c(-c2cc(C(C)(C)C)cc(C(C)(C)C)c2)nc2cc3nc(-c4cc(C(C)(C)C)cc(C(C)(C)C)c4)n(CCC)c3cc21	> 10 µM	> 10 µM				
CCCn1c(-c2cccc(OC)c2)nc2cc3nc(-c4cccc(OC)c4)n(CCN(C)C)c3cc21	> 10 µM	> 10 µM				

SMILES	IC50 [1]	IC50 [2]	IC50 (ECa-109 cell line)	IC50 (HepG2 [3])	Activity [4]	inhibition in vivo at 60 mg/kg (HepG2 [5])
CCCn1c(-c2ccc(F)cc2)nc2cc3nc(-c4ccc(F)cc4)n(CCC)c3cc21	> 10 µM	> 10 µM				
CCCn1c(C2CCCCC2)nc2cc3nc(C4CCCCC4)n(CCC)c3cc21	8.11 µM	> 10 µM				
CCCn1c(-c2ccc(C)nc2)nc2cc3nc(-c4ccc(C)nc4)n(CCC)c3cc21	> 10 µM	> 10 µM				
CCCn1c(-c2cc(F)cc(F)c2)nc2cc3nc(-c4cc(F)cc(F)c4)n(CCC)c3cc21	> 10 µM	> 10 µM				
CCCn1c(-c2cccn2C)nc2cc3nc(-c4cccn4C)n(CCC)c3cc21	> 10 µM	> 10 µM				
CCCn1c(-c2cccc(F)c2)nc2cc3nc(-c4cccc(F)c4)n(CCC)c3cc21	1.5 µM	> 10 µM	> 20 µM	> 20 µM		
Fc1cccc(-c2nc3cc4nc(-c5cccc(F)c5)n(C5CC5)c4cc3n2C2CC2)c1	> 10 µM	> 10 µM				
CCCn1c(-c2ccc(C(F)(F)F)cc2)nc2cc3nc(-c4ccc(C(F)(F)F)cc4)n(CCC)c3cc21	> 10 µM	> 10 µM				
CCCn1c(-c2cccc(Cl)c2)nc2cc3nc(-c4cccc(Cl)c4)n(CCC)c3cc21	2.89 µM	> 10 µM	> 20 µM	17.9 µM		
CCCn1c(-c2cccc(C)c2)nc2cc3nc(-c4cccc(C)c4)n(CCC)c3cc21	2 µM	> 10 µM	> 20 µM	6.12 µM		
CCCn1c(-c2ccc(C)o2)nc2cc3nc(-c4ccc(C)o4)n(CCC)c3cc21	> 10 µM	> 10 µM				
CCCn1c(-c2cccc(OC)c2)nc2cc3nc(-c4cccc(OC)c4)n(C4CCN(C)CC4)c3cc21	> 10 µM	> 10 µM				
CNC(=O)c1cc(Oc2ccc(NC(=O)Nc3ccc(Cl)c(C(F)(F)F)c3)cc2)ccn1 [SORAFENIB]					Toxic	88.4%
CCCn1c(-c2nccs2)nc2cc3nc(-c4nccs4)n(CCC)c3cc21	> 10 µM	> 10 µM				
CCCCn1c(-c2cccc(F)c2)nc2cc3nc(-c4cccc(F)c4)n(CCCC)c3cc21	7.85 µM	> 10 µM				
CCCn1c(-c2cccc3ccccc23)nc2cc3nc(-c4cccc5ccccc45)n(CCC)c3cc21	9.5 µM	> 10 µM				
CCCn1c(-c2cncnc2)nc2cc3nc(-c4cncnc4)n(CCC)c3cc21	> 10 µM	> 10 µM				
CCCn1c(-c2ccccc2F)nc2cc3nc(-c4ccccc4F)n(CCC)c3cc21	10.3 µM	> 10 µM				
CCCn1c(-c2cccc(O)c2)nc2cc3nc(-c4cccc(O)c4)n(CCC)c3cc21	10.2 µM	> 10 µM				
CCCn1c(-c2cccc(C(=O)OC)c2)nc2cc3nc(-c4cccc(C(=O)OC)c4)n(CCC)c3cc21	8.89 µM	> 10 µM				
CC(C)Cn1c(-c2cccc(F)c2)nc2cc3nc(-c4cccc(F)c4)n(CC(C)C)c3cc21	> 10 µM	> 10 µM				
